According to patent publication US12349706B2, “Compositions and methods related to excipients and cannabinoid formulations” (Natural Extraction Systems, LLC, priority 2020, dated 2025):

Tests used:
Type in all cases: in vivo
Sabra mice [1] = experiment: Zymosan-induced inflammatory paw swelling, measured with a caliper; conditions: zymosan in left hind paw, paw swelling by caliper, 300 milligrams formulation (cannabinoid in propylene glycol, xylitol solid phase) in 15 milliliters water, oral gavage
Procedure: (§1) The activity of formulations set forth in this disclosure is assayed in Sabra mice. 300 milligrams of a formulation is combined with 15 milliliters of water and administered by oral gavage. Each formulation comprises a liquid phase that contains propylene glycol and a solid phase that contains xylitol. The liquid phase contains a cannabinoid selected from CBD, THC, Δ8-THC, CBG, CBDV, THCV, Δ8-THCV, CBGV, CBC, CBN, tetrahydrocannabiphorol, perrottetinene, nabilone, parahexyl, HUM-217, and HU-331, which is dissolved in the propylene glycol, and controls lack any cannabinoid.
(§2) Zymosan is injected into the left hind paws of each mouse to induce pain, inflammation, and tumor necrosis factor (“TNF”) signaling. Inflammatory paw swelling is measured with a caliper. Pain is measured with a Von Frey hair aesthesiometer. Plasma TNF is measured […].

[2] = test system: tumor necrosis factor (“TNF”) signaling; experiment: Plasma TNF after zymosan injection, measured by HPLC; conditions: Sabra mice, zymosan in left hind paw, 300 milligrams formulation (cannabinoid in propylene glycol, xylitol solid phase) in 15 milliliters water, oral gavage
Procedure: as §1, §2

Sabra mice [3] = experiment: Zymosan-induced paw pain, Von Frey hair aesthesiometer; conditions: zymosan in left hind paw, 300 milligrams formulation (cannabinoid in propylene glycol, xylitol solid phase) in 15 milliliters water, oral gavage
Procedure: as §1, §2

## CCCCCc1cc(O)c(C/C=C(\C)CCC=C(C)C)c(O)c1 [CBG]
Sabra mice [1]
  reduction in inflammation relative to controls: modest reduction
[2]
  reduction in TNF signaling relative to controls: modest reduction
Sabra mice [3]
  reduction in pain relative to controls: modest reduction

## CCCCCCCc1cc(O)c2c(c1)OC(C)(C)[C@@H]1CCC(C)=C[C@@H]21 [tetrahydrocannabiphorol]
Sabra mice [1]
  reduction in inflammation relative to controls: modest reduction
[2]
  reduction in TNF signaling relative to controls: modest reduction
Sabra mice [3]
  reduction in pain relative to controls: modest reduction

## C=C(C)[C@@H]1CCC(C)=C[C@H]1C1=C(O)C(=O)C(CCCCC)=CC1=O [HU-331]
Sabra mice [1]
  reduction in inflammation relative to controls: robust reduction
[2]
  reduction in TNF signaling relative to controls: robust reduction
Sabra mice [3]
  reduction in pain relative to controls: robust reduction

## CCCCCCC(C)(C)c1cc(O)c2c(c1)OC(C)(C)C1CCC(=O)CC21 (stereo not drawn) [nabilone]
Sabra mice [1]
  reduction in inflammation relative to controls: modest reduction
[2]
  reduction in TNF signaling relative to controls: modest reduction
Sabra mice [3]
  reduction in pain relative to controls: modest reduction

## C=C(C)[C@@H]1CCC(C)=C[C@H]1c1c(O)cc(CCCCC)cc1O [CBD]
Sabra mice [1]
  reduction in inflammation relative to controls: robust reduction
[2]
  reduction in TNF signaling relative to controls: robust reduction
Sabra mice [3]
  reduction in pain relative to controls: robust reduction

## CCCCCCc1cc(O)c2c(c1)OC(C)(C)C1=C2CC(C)CC1 (stereo not drawn) [parahexyl]
Sabra mice [1]
  reduction in inflammation relative to controls: modest reduction
[2]
  reduction in TNF signaling relative to controls: modest reduction
Sabra mice [3]
  reduction in pain relative to controls: modest reduction

## CCCc1cc(O)c2c(c1)OC(C)(C)[C@@H]1CC=C(C)C[C@@H]21 [Δ8-THCV]
Sabra mice [1]
  reduction in inflammation relative to controls: modest reduction
[2]
  reduction in TNF signaling relative to controls: modest reduction
Sabra mice [3]
  reduction in pain relative to controls: modest reduction

## CCCCCc1cc(O)c2c(c1)OC(C)(CCC=C(C)C)C=C2 (stereo not drawn) [CBC]
Sabra mice [1]
  reduction in inflammation relative to controls: no detectable effect
[2]
  reduction in TNF signaling relative to controls: no detectable effect
Sabra mice [3]
  reduction in pain relative to controls: no detectable effect

## CCCCCc1cc(O)c2c(c1)OC(C)(C)c1ccc(C)cc1-2 [CBN]
Sabra mice [1]
  reduction in inflammation relative to controls: modest reduction
[2]
  reduction in TNF signaling relative to controls: modest reduction
Sabra mice [3]
  reduction in pain relative to controls: modest reduction

## CCCc1cc(O)c2c(c1)OC(C)(C)[C@@H]1CCC(C)=C[C@@H]21 [THCV]
Sabra mice [1]
  reduction in inflammation relative to controls: modest reduction
[2]
  reduction in TNF signaling relative to controls: modest reduction
Sabra mice [3]
  reduction in pain relative to controls: modest reduction

## C=C(C)[C@@H]1CCC(C)=C[C@H]1c1c(O)cc(CCC)cc1O [CBDV]
Sabra mice [1]
  reduction in inflammation relative to controls: robust reduction
[2]
  reduction in TNF signaling relative to controls: robust reduction
Sabra mice [3]
  reduction in pain relative to controls: robust reduction

## CCCCCc1cc(O)c2c(c1)OC(C)(C)[C@@H]1CCC(C)=C[C@@H]21 [THC]
Sabra mice [1]
  reduction in inflammation relative to controls: modest reduction
[2]
  reduction in TNF signaling relative to controls: modest reduction
Sabra mice [3]
  reduction in pain relative to controls: modest reduction

## CCCCCc1cc(O)c2c(c1)OC(C)(C)[C@@H]1CC=C(C)C[C@@H]21 [Δ8-THC]
Sabra mice [1]
  reduction in inflammation relative to controls: modest reduction
[2]
  reduction in TNF signaling relative to controls: modest reduction
Sabra mice [3]
  reduction in pain relative to controls: modest reduction

## CC1=C[C@H]2c3c(O)cc(CCc4ccccc4)cc3OC(C)(C)[C@H]2CC1 [perrottetinene]
Sabra mice [1]
  reduction in inflammation relative to controls: modest reduction
[2]
  reduction in TNF signaling relative to controls: modest reduction
Sabra mice [3]
  reduction in pain relative to controls: modest reduction
